Tested on: AK
Test: AK activity of cell-free extracts, with and without L-lysine (method of Stadtman)
Type: biochemical, Methylophilus methylotrophus
Details: L-lysine alone
Procedure: Cell-free extracts were prepared from the Methylophilus methylotrophus AS1 strain containing the RSFD80 plasmid (also referred to as “AS1/RSFD80” hereinafter) and the Methylophilus methylotrophus AS1 strain containing the pRS plasmid (also referred to as “AS1/pRS” hereinafter), and AK activity was measured. The cell-free extracts (crude enzyme solutions) were prepared as follows. The AS1/RSFD80 strain and AS1/pRS strain were each inoculated to 121 production medium of the above composition containing 20 mg/L of streptomycin, cultured at 37° C. for 34 hours with shaking, and then calcium carbonate was removed and cells were harvested.
The bacterial cells obtained as described above were washed with 0.2% KCl under a condition of 0° C., suspended in 20 mM potassium phosphate buffer (pH 7) containing 10 mM MgSO4, 0.8 M (NH4)2SO4 and 0.03 M β-mercaptoethanol, and disrupted by sonication (0° C., 200 W, 10 minutes). […]
The measurement of AK activity was performed in accordance with the method of Stadtman (Stadtman, E. R., Cohen, G. N., LeBras, G., and Robichon-Szulmajster, H., J. Biol. Chem., 236, 2033 (1961)). […] The reaction solution was centrifuged, and absorbance of the supernatant was measured at 540 nm. […] When the enzymatic activity was measured, L-lysine was added to the enzymatic reaction solution at various concentrations to examine degree of inhibition by L-lysine.

NCCCC[C@H](N)C(=O)O [L-lysine]
inhibition of AK originally retained by the AS1 strain: not inhibited

Source: patent publication US7223572B1, “Methylophilus methylotrophus having enhanced dihydrodipicolinate synthase and/or aspartokinase activity for L-amino acid production” (Ajinomoto Co., Inc., priority 1999, dated 2007)
